Experimental data: patent US20040038855A1 (priority 1999, published 2004)
Counter-ions that a name gives are not always drawn. Like-named read-outs stand apart in the source and are kept apart here. Values belong to the compound of their own block, whether it stands above or below them.

Tests used:
human GALR3 receptor = biological target: T1, human GALR3 receptor (Homo sapiens, UniProt O60755); assay: Binding affinity at the human GALR3 receptor; details: read-out: hGALR3 Ki
T1 construct: expressed in transfected cells
T1 sequence (O60755 1-368): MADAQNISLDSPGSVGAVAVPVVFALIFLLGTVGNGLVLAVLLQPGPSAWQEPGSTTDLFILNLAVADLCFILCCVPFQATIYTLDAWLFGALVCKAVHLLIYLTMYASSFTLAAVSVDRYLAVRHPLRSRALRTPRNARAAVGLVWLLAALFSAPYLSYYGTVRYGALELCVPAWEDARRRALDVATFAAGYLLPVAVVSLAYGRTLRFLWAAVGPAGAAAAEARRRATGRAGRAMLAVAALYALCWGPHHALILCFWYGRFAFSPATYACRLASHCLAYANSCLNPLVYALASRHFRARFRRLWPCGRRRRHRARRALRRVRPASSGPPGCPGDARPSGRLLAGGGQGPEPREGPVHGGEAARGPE
Text: (§1) The design of such compounds can be optimized by determining their binding affinity at the recombinant MCH1, NPY1, NPY2, Gal1, Gal2, Gal3, and 5HT2C receptors. The methods to obtain the cDNA of the receptor, express said receptors in heterologous systems, and carry out assays to determine binding affinity are described in the following publications: human NPY1 (Larhammar et al., 1992), human NPY5 (U.S. Pat. No. 5,602,024, the disclosure of which is hereby incorporated by reference in its entirety into this application), human Gall (Habert-Ortoli et al., 1994), human Gal2 (Smith et al., 1997), human Gal3 (Smith et al., 1998), and rat 5HT2C (Julius et al., 1988). Additionally, the compounds would optimally not bind at the following receptors due to possible side effects: human H1 histamine and human H2 histamine receptors; human alpha-1A adrenergic, human alpha-1D adrenergic, human alpha-2A adrenergic, human alpha-2B adrenergic, and human alpha-2C adrenergic receptors; human dopamine D1, D2, D3, D4, and D5 receptors; the β-adrenoceptor; and the human 5HT1A, human 5HT1B, human 5HT1D, human 5HT1E, human 5HT1F, human 5HT2A, rat 5HT2C, human 5HT4, human 5HT6, and human 5HT7 receptors.

human MCH1 receptor [1] = biological target: T2, human MCH1 receptor (Homo sapiens, UniProt Q99705); assay: Competition binding, membrane preparations of A293 cells expressing the human MCH1 receptor, [3H] Compound 10 as radioligand; set-up: expressed in transfected cells; details: Table 3b; A293 cell membranes, [3H] Compound 10; read-out: hMCH1* Ki
T2 sequence (Q99705 whole entry): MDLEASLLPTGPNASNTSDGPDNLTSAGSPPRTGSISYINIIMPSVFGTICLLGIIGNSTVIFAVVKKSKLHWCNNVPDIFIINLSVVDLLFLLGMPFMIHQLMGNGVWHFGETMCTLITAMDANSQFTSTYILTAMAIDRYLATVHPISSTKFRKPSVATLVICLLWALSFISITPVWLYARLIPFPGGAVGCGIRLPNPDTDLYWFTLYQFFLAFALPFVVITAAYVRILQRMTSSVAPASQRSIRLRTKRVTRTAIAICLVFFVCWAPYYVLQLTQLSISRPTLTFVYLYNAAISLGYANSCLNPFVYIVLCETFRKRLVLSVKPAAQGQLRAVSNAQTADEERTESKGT
Experimental: TRITIATED METHYL (4S)-3-{[(3-{4-[3-(ACETYLAMINO)PHENYL]-1-[…]}PROPYL)AMINO]CARBONYL}-4-(3,4-DIFLUOROPHENYL)-6-(METHOXYMETHYL)-2-OXO-1,2,3,4-TETRAHYDRO-5-PYRIMIDINECARBOXYLATE ([^3H] COMPOUND 10): This radiochemical synthesis was carried out by Amersham Pharmacia Biotech, Cardiff, Wales. A methanolic solution of methyl (4S)-3-({[3-(4-[3-(acetylamino)phenyl]-3,6-dihydro-1(2H)pyridinyl)propyl]amino}carbonyl)-4-(3,4-difluorophenyl)-6-(methoxymethyl)-2-oxo-1,2,3,4-tetrahydro-5-pyrimidinecarboxylate was exposed to tritium gas at 1 atmosphere pressure in the presence of 5% palladium on carbon with stirring overnight to give the tritiated methyl (4S)-3-{[(3-{4-[3-(acetylamino)phenyl]-1-piperidinyl}propyl)amino]carbonyl}-4-(3,4-difluorophenyl)-6-(methoxymethyl)-2-oxo-1,2,3,4-tetrahydro-5-pyrimidinecarboxylate ((+)-isomer) After purification by reverse phase HPLC (Hypersil ODS, 4.6×100 mm, methanol:H2O:Et3N 10:90:1 to 100:0:1 in 15 min at 1.0 mL/min, with radiochemical and UV detection), this product was used as a radioligand in the MCH1 binding assays. The same procedure was carried out with H2 gas in place of ^3H2 to afford the non-radioactive version of Compound 10.

human GALR2 receptor = biological target: T3, human GALR2 receptor (Homo sapiens, UniProt O43603); assay: Binding affinity at the human GALR2 receptor; details: Table 3a; read-out: hGALR2 Ki
T3 construct: expressed in transfected cells
T3 sequence (O43603 1-387): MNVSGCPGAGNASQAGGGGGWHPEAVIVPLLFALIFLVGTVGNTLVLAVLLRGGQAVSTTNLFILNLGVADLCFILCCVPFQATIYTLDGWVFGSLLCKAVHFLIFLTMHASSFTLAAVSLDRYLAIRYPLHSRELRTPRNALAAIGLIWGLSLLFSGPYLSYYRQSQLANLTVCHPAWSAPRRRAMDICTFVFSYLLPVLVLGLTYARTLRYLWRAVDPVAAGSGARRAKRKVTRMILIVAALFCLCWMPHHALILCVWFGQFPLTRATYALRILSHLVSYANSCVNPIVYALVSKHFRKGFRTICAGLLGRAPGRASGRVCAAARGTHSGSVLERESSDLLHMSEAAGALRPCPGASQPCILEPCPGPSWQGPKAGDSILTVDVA
Text: as §1

human MCH1 receptor [2] = biological target: T2, human MCH1 receptor; assay: Intracellular calcium response to MCH in COS-7 cells transfected with MCH1 (fluo-3, FLIPR): antagonist potency; format: cell-based; set-up: expressed in transfected cells; host or cells: COS-7; details: read-out: Kb (nM) hMCH1
Text: MCH1 antagonist compounds were identified by their ability to inhibit the MCH-elicited response. […]. From the IC50 values, the antagonist potency (Kb)was derived using the Cheng-Prussof correction (Lazareno and Birdsall, 1993). […]

human GALR1 receptor = biological target: T4, human GALR1 receptor (Homo sapiens, UniProt P47211); assay: Binding affinity at the human GALR1 receptor; details: read-out: hGALR1 Ki
T4 construct: expressed in transfected cells
T4 sequence (P47211 1-349): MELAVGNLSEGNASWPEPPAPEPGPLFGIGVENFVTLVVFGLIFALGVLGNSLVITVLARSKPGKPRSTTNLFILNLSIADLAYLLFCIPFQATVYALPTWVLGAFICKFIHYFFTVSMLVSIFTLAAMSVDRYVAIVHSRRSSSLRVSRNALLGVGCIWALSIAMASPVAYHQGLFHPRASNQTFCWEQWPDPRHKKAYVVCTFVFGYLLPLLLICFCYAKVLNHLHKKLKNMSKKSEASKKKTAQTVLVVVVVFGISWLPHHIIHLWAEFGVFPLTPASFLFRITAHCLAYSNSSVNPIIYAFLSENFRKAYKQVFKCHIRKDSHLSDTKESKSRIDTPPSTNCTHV
Text: as §1

rat 5HT2C receptor = biological target: T5, rat 5HT2C receptor (Rattus norvegicus, UniProt P08909); assay: Binding affinity at the rat 5HT2C receptor; details: Table 3a; read-out: r5HT2C Ki
T5 construct: expressed in transfected cells
T5 sequence (P08909 33-460): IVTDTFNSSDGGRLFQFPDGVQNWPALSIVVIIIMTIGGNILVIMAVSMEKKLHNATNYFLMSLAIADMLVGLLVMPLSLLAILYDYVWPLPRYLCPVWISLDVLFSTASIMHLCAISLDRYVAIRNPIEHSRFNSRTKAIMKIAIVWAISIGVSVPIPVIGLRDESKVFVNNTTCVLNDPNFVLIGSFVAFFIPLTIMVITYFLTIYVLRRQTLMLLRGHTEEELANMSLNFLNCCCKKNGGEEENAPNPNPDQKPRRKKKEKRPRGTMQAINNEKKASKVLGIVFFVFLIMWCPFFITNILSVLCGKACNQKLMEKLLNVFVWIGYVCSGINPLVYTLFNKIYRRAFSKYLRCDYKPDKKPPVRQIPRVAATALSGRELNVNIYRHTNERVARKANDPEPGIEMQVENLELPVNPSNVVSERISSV
Text: as §1
Other 5HT Receptors: Other serotonin receptor binding assays were performed according to published methods: rat 5HT2C receptor (Julius et al., 1988); and 5HT6 (Monsma, et al., 1993). The binding assays using the 5HT4 receptor were performed according to the procedures described in U.S. Pat. No. 5,766,879, the disclosure of which is hereby incorporated by reference in its entirety into this application.

rat MCH1 receptor = biological target: T6, rat MCH1 receptor (Rattus norvegicus, UniProt P97639); assay: Binding affinity (Ki) at the rat MCH1 receptor; details: Examples 142-153; read-out: Ki (nM) rMCH1
T6 construct: expressed in transfected cells
T6 sequence (P97639 whole entry): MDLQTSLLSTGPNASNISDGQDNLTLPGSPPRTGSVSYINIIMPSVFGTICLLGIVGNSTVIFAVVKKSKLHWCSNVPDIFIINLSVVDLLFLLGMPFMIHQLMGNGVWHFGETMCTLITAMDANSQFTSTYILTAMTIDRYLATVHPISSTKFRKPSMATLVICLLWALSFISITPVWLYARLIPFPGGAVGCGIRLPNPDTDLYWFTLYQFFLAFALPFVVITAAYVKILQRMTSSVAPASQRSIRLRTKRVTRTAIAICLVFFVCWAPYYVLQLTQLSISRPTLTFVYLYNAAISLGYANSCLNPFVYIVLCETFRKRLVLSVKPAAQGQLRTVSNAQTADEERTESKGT

[3] = test system: micturition reflex, conscious male Sprague Dawley rats; assay: Continuous Slow Transvesicular Infusion (CSTI) rat model; format: in vivo; set-up: key to Effect of MCH1 antagonist in the CSTI model: B = Produced an increase in bladder capacity in rats relative to baseline capacity; details: bladder capacity, intragastric
Experimental: The effects of compounds on the micturition reflex were assessed in the “distension-induced rhythmic contraction” (DIRC), as described in previous publications (e.g. Maggi et al, 1987; Morikawa et al, 1992), and Continuous Slow Transvesicular Infusion (CSTI) models in rats. Male Sprague Dawley rats weighing approximately 300 g were used for the study. Rats were anaesthetized with pentobarbitone sodium (50 mg/kg, i.p). Through a median abdominal incision, bladder was exposed and a polyethylene cannula (PE 50) was introduced into the bladder through a small cut on the dome of the bladder and the cannula was secured with a purse string suture. The other end of the cannula was exteriorized subcutaneously at the dorsal neck area. Similarly, another cannula (PE 50) was introduced into the stomach through a paramedian abdominal incision with the free end exteriorized subcutaneously to the neck region. The surgical wounds were closed with silk 4-0 suture and the animal was allowed to recover with appropriate post surgical care. On the following day, the animal was placed in a rat restrainer. The open end of the bladder cannula was connected to a pressure transducer as well as infusion pump through a three-way stopcock. The bladder voiding cycles were initiated by continuous infusion of normal saline at the rate of 100 ul/min. The repetitive voiding contractions were recorded on a Power Lab on-line data acquisition software. After recording the basal voiding pattern for an hour, the test drug or vehicle was administered directly into stomach through the intragastric catheter and the voiding cycles were monitored for 5 hours. Micturition pressure and frequency were calculated before and after the treatment (at every 30 min interval) for each animal. Bladder capacity was calculated from the micturition frequency, based on the constant infusion of 100 ul/min. The effect of the test drug was expressed as a percentage of basal, pre-drug bladder capacity. WAY 100635 was used as positive control for comparison.

- Ki (human GALR3 receptor; Table 3a): > 50000 nM
- Ki (human GALR3 receptor; Table 3b): > 50000 nM
- Ki (human MCH1 receptor [1]): 50 nM
- Ki (human GALR2 receptor): 42600 nM
- Kb (human MCH1 receptor [2]): 2 nM
- melting point: 168 to 172 °C
- Ki (human GALR1 receptor; Table 3a): > 50000 nM
- Ki (human GALR1 receptor; Table 3b): > 50000 nM
- Ki (rat 5HT2C receptor): 663 nM
Structure (SMILES): COCC1=C(C(=O)OC)C(c2ccc(F)c(F)c2)N(C(=O)NCCCN2CCC(c3cccc4ccccc34)CC2)C(=O)N1 (single isomer, unassigned; (+)) [Example 14, (+)-1,2,3,6-TETRAHYDRO-1-{N-[4-(1-NAPHTHYL)-PIPERIDIN-1-YL]PROP-YL}CARBOXAMIDO-4-METHOXYMETHYL-6-(3,4-DIFLUOROPHENYL)-2-OXO-PYRIMIDINE-5-CARBOXYLIC ACID METHYL ESTER]

Structure (SMILES): COCC1=C(C(=O)OC)C(c2ccc(F)c(F)c2)N(C(=O)NCCCN2CCC(O)(c3ncccc3C)CC2)C(=O)N1 (single isomer, unassigned; (+)) [Example 16, (+)-1,2,3,6-TETRAHYDRO-1-{N-[4-HYDROXY-4-(2-PYRIDYL)-PIPERIDIN-1-YL]PROPYL}CARBOXAMIDO-4-METHOXYMETHYL-6-(3,4-DIFLUOROPHENYL)-2-OXOPYRIMIDINE-5-CARBOXYLIC ACID METHYL ESTER]
- Kb (human MCH1 receptor [2]): 329 nM
- melting point: 132 to 135 °C

- Ki (rat MCH1 receptor): 2.3 nM
Structure (SMILES): COc1ccc2[nH]c(-c3ccccc3)c(CCCN3CCC(c4cccc(NC(=O)C(C)C)c4)CC3)c2c1 [Example 147]
- Effect of MCH1 antagonist in the CSTI model [3]: B

- Ki (rat MCH1 receptor): 1.7 nM
Structure (SMILES): CCn1c2ccccc2c2cc(CN3CCC(c4cccc(NC(=O)C(C)C)c4)CC3)ccc21 [Example 148]
- Effect of MCH1 antagonist in the CSTI model [3]: B

Structure (SMILES): Cc1ccc(NC(=O)C(C)C)cc1C1CCN(Cc2ccc(Oc3ccc(F)c(F)c3)cc2)CC1 [Example 152]
- Ki (rat MCH1 receptor): 2.2 nM
- Effect of MCH1 antagonist in the CSTI model [3]: B

Structure (SMILES): CC(C)C(=O)Nc1cccc(C2CCN(CCCNC(=O)C(c3ccccc3)c3ccccc3)CC2)c1 [Example 153]
- Ki (rat MCH1 receptor): 2.9 nM
- Effect of MCH1 antagonist in the CSTI model [3]: B

Structure (SMILES): CC(=O)C1=C(C)NC(=O)N(C(=O)NCCCN2CCC(c3cccc(NC(=O)C(C)C)c3)CC2)[C@H]1c1cc(F)c(F)c(F)c1 [Example 155, (+)-5-ACETYL-N-(3-{4-[3-(ISOBUTYRYLAMINO)PHENYL]-1-PIPERIDINYL}PROPYL)-4-METHYL-2-OXO-6-(3,4,5-TRIFLUOROPHENYL)-3,6-DIHYDRO-1(2H)-PYRIMIDINECARBOXAMIDE. HYDROCHLORIDE SALT]
- Effect of MCH1 antagonist in the CSTI model [3]: B
